Like-named read-outs stand apart in the source and are kept apart here.
Molecular target: GAL4 DBD (1-147)-CfEcR(DEF)/VP16AD-βRXREF-LmUSPEF (Choristoneura fumiferana, UniProt O77240)
Test: cell-based
Details: for Fold Induction, 27-63 Assay, 3.3 uM: 3.3 uM ligand; for Fold Induction, 27-63 Assay, 3.3 uM / Fold Induction, 27-63 Assay, 33 uM: RLU ligand treated / RLU DMSO treated cells; for Fold Induction, 27-63 Assay, 33 uM: 33 uM ligand; for 27-63 assay Rel Max FI: maximum fold induction at any concentration relative to that of GS-E ligand, CHO 27-63 cells; for fold induction at 33 µM: read-out: Fold Induction, 27-63 Assay, 33 uM
Description: GAL4 DBD (1-147)-CfEcR(DEF)/VP16AD-βRXREF-LmUSPEF:
The wild-type D, E, and F domains from spruce budworm Choristoneura fumiferana EcR (“CfEcR-DEF”; SEQ ID NO: 1) were fused to a GAL4 DNA binding domain (“Gal4DBD1-147”; SEQ ID NO: 2) and placed under the control of a phosphoglycerate kinase promoter (“PGK”; SEQ ID NO: 3). Helices 1 through 8 of the EF domains from Homo sapiens RXRβ (“HsRXRβ-EF”; nucleotides 1-465 of SEQ ID NO: 4) and helices 9 through 12 of the EF domains of Locusta migratoria Ultraspiracle Protein (“LmUSP-EF”; nucleotides 403-630 of SEQ ID NO: 5) were fused to the transactivation domain from VP16 (“VP16AD”; SEQ ID NO: 6) and placed under the control of an elongation factor-1α promoter (“EF-1α”; SEQ ID NO: 7). Five consensus GAL4 response element binding sites (“5XGAL4RE”; comprising 5 copies of a GAL4RE comprising SEQ ID NO: 8) were fused to a synthetic TATA minimal promoter (SEQ ID NO: 9) and placed upstream of the luciferase reporter gene (SEQ ID NO: 10).
CHO cells were transiently transfected with transcription cassettes for GAL4 DBD (1-147) CJEcR(DEF) and for VP16AD βRXREF-LmUSPEF controlled by ubiquitously active cellular promoters (PGK and EF-la, respectively) on a single plasmid. Stably transfected cells were selected by Zeocin resistance. Individually isolated CHO cell clones were transiently transfected with a GAL4 RE-luciferase reporter (pFR Luc). 27-63 clone was selected using Hygromycin.
Cells were trypsinized and diluted to a concentration of 2.5×10^4 cells mL. 100 μL of cell suspension was placed in each well of a 96 well plate and incubated at 37° C. under 5% CO2 for 24 h. Ligand stock solutions were prepared in DMSO and diluted 300 fold for all treatments. Dose response testing consisted of 8 concentrations ranging from […] to 0.01 μM.
Luciferase reporter gene expression was measured 48 h after cell treatment using Bright-Glo™ Luciferase Assay System from Promega (E2650). Luminescence was detected at room temperature using a Dynex MLX microtiter plate luminometer.
Each assay was conducted in two separate wells, and the two values were averaged. Fold inductions were calculated by dividing relative light units (“RLU”) in ligand treated cells with RLU in DMSO treated cells. EC50s were calculated from dose response data using a three-parameter logistic model.

[1] = read-out: 27-63 assay EC50, CHO 27-63 stable cell line, luciferase reporter, average of two wells

SMILES	Fold Induction, 27-63 Assay, 3.3 uM (average of two wells)	Fold Induction, 27-63 Assay, 33 uM (average of two wells)	27-63 assay Rel Max FI	EC50 [1] [nM]	EC50 [nM]	fold induction at 33 µM
COc1cccc(C(=O)NN(C(=O)c2ccc(C(F)(F)F)n(C)c2=O)C(C)(C)C)c1C [RG-115835]	3	1895	0.731	20000		
CCc1ccc(C(=O)NN(C(=O)c2cc(C)cc(C)c2)C(CC)C(C)(C)C)cc1 (stereo not drawn) [RG-115836]	1822	823	0.808	98		
CCc1ccc(C(=O)NN(C(=O)c2cccnc2OC)C(CC)C(C)(C)C)cc1 (stereo not drawn) [RG-115837]	1474	1156	0.569	1110		
CCCCC(N(NC(=O)c1ccc(CC)cc1)C(=O)c1cc(C)cc(C)c1)C(C)(C)C (stereo not drawn) [RG-115840]	1612	263	0.776	110		
CCCCC(N(NC(=O)c1ccc(CC)cc1)C(=O)c1cc(OC)c(C)c(OC)c1)C(C)(C)C (stereo not drawn) [RG-115841]	1407	437	0.610	2020		
CCCCC(N(NC(=O)c1ccc(CC)cc1)C(=O)c1cccnc1OC)C(C)(C)C (stereo not drawn) [RG-115842]	1269	447	0.524	1200		
CCc1ccc(C(=O)NN(C(=O)c2cc(C)cc(C)c2)C(c2ccccc2)C(C)(C)C)cc1 (stereo not drawn) [RG-115846]	1643	645	0.846	95		
CCc1ccc(C(=O)NN(C(=O)c2cccnc2OC)C(c2ccccc2)C(C)(C)C)cc1 (stereo not drawn) [RG-115848]	1346	1156	0.494	1290		
COc1cc(C(=O)N(NC(=O)c2cccc(OC)c2C)C(C)(C)C)nc(OC)n1 [RG-115849]	1	231	0.007	> 33000		
COc1cc(C(=O)N(NC(=O)c2cccc(OC)c2C)C(C)(C)C)c(OC)nn1 [RG-115850]	1	23	0.001	> 33000		
CCCCC(N(NC(=O)c1cccc(OC)c1C)C(=O)c1cc(C)cc(C)c1)C(C)(C)C (stereo not drawn) [RG-115851, 3,5-dimethyl-benzoic acid N-(1-tert-butyl-pentyl)-N′-(3-methoxy-2-methyl-benzoyl)-hydrazide]			1		20	
CCCCC(N(NC(=O)c1cccc(OC)c1C)C(=O)c1cc(OC)c(C)c(OC)c1)C(C)(C)C (stereo not drawn) [RG-115852, 3,5-dimethoxy-4-methyl-benzoic acid N-(1-tert-butyl-pentyl)-N′-(3-methoxy-2-methyl-benzoyl)-hydrazide]			1		70	
CCc1c(C(=O)NN(C(=O)c2cc(OC)c(C)c(OC)c2)C(CC)C(C)(C)C)ccc2c1OCCO2 (stereo not drawn) [RG-115859, 3,5-Dimethoxy-4-methyl-benzoic acid N′-(5-ethyl-2,3-dihydro-benzo[1,4]dioxine-6-carbonyl)-N-(1-ethyl-2,2-dimethyl-propyl)-hydrazide]			1.218		7	1060
COc1cccc(C(=O)NN(C(=O)c2cc(Cl)nnc2Cl)C(C)(C)C)c1C [RG-115861]	8	593	0.215	4310		
COc1cccc(C(=O)NN(C(=O)c2ccnnc2)C(C)(C)C)c1C [RG-115862]	1	243	0.048	> 33000		
COc1cc(C(=O)N(NC(=O)c2cccc(OC)c2C)C(C)(C)C)c(=O)[nH]n1 [RG-115863]	1	804	0.154	> 33000		
CCCC(N(NC(=O)c1ccc2c(c1C)OCCO2)C(=O)c1cc(OC)c(C)c(OC)c1)C(C)(C)C (stereo not drawn) [RG-115865, 3,5-Dimethoxy-4-methyl-benzoic acid N-(1-tert-butyl-butyl)-N′-(5-methyl-2,3-dihydrobenzo[1,4]dioxine-6-carbonyl)-hydrazide]			1.246		10	76
CCCC(N(NC(=O)c1ccc2c(c1CC)OCCO2)C(=O)c1cc(C)cc(C)c1)C(C)(C)C (stereo not drawn) [RG-115866, 3,5-Dimethyl-benzoic acid N-(1-tert-butyl-butyl)-N′-(5-ethyl-2,3-dihydro-benzo[1,4]dioxine-6-carbonyl)-hydrazide]			0.999		10	3
CCCC(N(NC(=O)c1ccc2c(c1CC)OCCO2)C(=O)c1cc(OC)c(C)c(OC)c1)C(C)(C)C (stereo not drawn) [RG-115867, 3,5-Dimethoxy-4-methyl-benzoic acid N-(1-tert-butyl-butyl)-N′-(5-ethyl-2,3-dihydro-benzo[1,4]dioxine-6-carbonyl)-hydrazide]						654
